Paper PMC3199943, “Screening the MayBridge Rule of 3 Fragment Library for Compounds That Interact with the Trypanosoma brucei myo-Inositol-3-Phosphate Synthase and/or Show Trypanocidal Activity” (Molecular Biology International, 2011)
Where two headings read alike, the source gives them in different places.

Assays:
TbINO1 = molecular target: T1, TbINO1 (Trypanosoma brucei brucei, UniProt Q5QQ46); assay: biochemical; type: binding
T1 sequence (Q5QQ46 1-528): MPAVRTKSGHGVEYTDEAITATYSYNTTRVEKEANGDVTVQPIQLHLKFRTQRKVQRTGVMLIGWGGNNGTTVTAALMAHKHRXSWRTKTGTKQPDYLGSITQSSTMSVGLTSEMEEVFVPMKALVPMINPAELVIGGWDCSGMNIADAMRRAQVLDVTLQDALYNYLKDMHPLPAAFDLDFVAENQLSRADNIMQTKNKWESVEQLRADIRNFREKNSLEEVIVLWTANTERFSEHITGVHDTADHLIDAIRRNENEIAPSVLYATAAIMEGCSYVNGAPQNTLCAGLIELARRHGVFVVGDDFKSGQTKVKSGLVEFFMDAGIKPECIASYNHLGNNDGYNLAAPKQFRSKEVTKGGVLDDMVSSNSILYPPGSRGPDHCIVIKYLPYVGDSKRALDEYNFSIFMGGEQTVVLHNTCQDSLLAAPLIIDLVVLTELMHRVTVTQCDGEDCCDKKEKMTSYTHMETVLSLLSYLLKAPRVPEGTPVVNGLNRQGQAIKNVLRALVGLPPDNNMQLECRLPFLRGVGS

HeLa cells = assay: cells; settings: for viability at 500 µM: 65 h; for HeLa Cells Alamar Blue: Supplementary Table 1, compound 0.5 mM, percentage of controls, mean ± SD (n=3) or SE (n=2)
Method in brief: (§1)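 Seed HeLa/A549 at 2 × 10^4 cells/well in DMEM/10% FCS/2 mM L-Gln; treat ~65 h; add Alamar Blue, 5 h more.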

A549 cells = assay: Cytotoxicity against A549 cells, Alamar Blue; type: cell-based; settings: Supplementary Table 1, compound 0.5 mM, percentage of controls (n=1); for viability at 500 µM: Homo sapiens, A549, 65 h
Method in brief: as §1

[1] = read-out: Tb Ino1 Tm Shift [˚C]
[2] = Homo sapiens, HeLa, read-out: HeLa Cells Alamar Blue
[3] = Supplementary Table 1, compound 1mM, mean ± SD from Boltzman curve fitting
[4] = Supplementary Table 1, compound 1mM, mean ± SD from Boltzman curve fitting, read-out: Tb Ino1 Tm Shift [˚C]
[5] = Homo sapiens, HeLa, read-out: HeLa Cells Alamar Blue (% survival)

Row | SMILES | ΔTm at 1000 µM (TbINO1; [1]) | viability at 500 µM (HeLa cells; [2]) | viability at 500 µM (A549 cells) | further results
1 | COc1cccc(OC)c1SC [compound 481, 1,3‐dimethoxy‐2‐(methylthio)benzene] | 0.07 ± 0.08 °C | 104 ± 17.6% | 103% | 
2 | O=C1CCOCC1 [compound 12, tetrahydro‐4H‐pyran‐4‐one] | 0.23 ± 0.07 °C | 100 ± 3.5% | 97.4% | 
3 | NC(=S)C1=Cc2ccccc2OC1 [compound 558, 2H‐chromene‐3‐carbothioamide] | 0.05 ± 0.09 °C | 80.8 ± 8.8% | 98.1% | 
4 | N#Cc1cccc(-n2ccnc2)c1 [compound 339, 3‐(1H‐imidazol‐1‐yl)benzonitrile] | 0.39 ± 0.06 °C | 89.8 ± 5.8% | 135% | 
5 | O=C(O)CCc1ccco1 [compound 131, 3‐(2‐furyl)propanoic acid] | 1.22 ± 0.09 °C | 69.8 ± 21.4% | 98.1% | 
6 | Nc1cc(F)cc(F)c1 [compound 89, 3,5‐difluoroaniline] | 0.3 ± 0.07 °C | 104 ± 10.5% | 132% | 
7 | CC1(C)C=Cc2cc(C#N)ccc2O1 [compound 487, 2,2‐dimethyl‐2H‐chromene‐6‐carbonitrile] | 0 °C | 112 ± 14.6% | 108% | 
8 | Cc1ccc(O)c(C)n1 [compound 64, 2,6‐dimethylpyridin‐3‐ol] | 0.13 ± 0.07 °C | 103 ± 13.2% | 80.6% | 
9 | CC(=O)c1sc(C)nc1C [compound 226, 1‐(2,4‐dimethyl‐1,3‐thiazol‐5‐yl)ethan‐1‐one] |  |  |  | Tb Ino1 Tm Shift [˚C] (TbINO1; [3]): 0.37 ± 0.1 °C; HeLa Cells Alamar Blue (HeLa cells): 85.8 ± 10.4 percentage of controls; A549 Cells Alamar Blue (A549 cells): 62 percentage of controls
10 | Cc1nc(C(N)=S)cs1 [compound 252, 2‐methyl‐1,3‐thiazole‐4‐carbothioamide] | 0.7 ± 0.07 °C | 90.3 ± 10.7% | 102% | 
11 | OCc1ccc2[nH]cnc2c1 [compound 170, 1H‐benzimidazol‐5‐ylmethanol] | 0.15 ± 0.07 °C | 98.3 ± 4.2% | 92% | 
12 | Nc1ccc2oc3c(c2c1)CCCC3 [compound 516, 6,7,8,9‐tetrahydrodibenzo[b,d]furan‐2‐amine] |  |  |  | Tb Ino1 Tm Shift [˚C] (TbINO1; [3]): 0.2 ± 0.07 °C; HeLa Cells Alamar Blue (HeLa cells): 108 ± 5.2 percentage of controls; A549 Cells Alamar Blue (A549 cells): 68.2 percentage of controls
13 | Cn1ccc2c(C(=O)O)cccc21 [compound 399, 1‐methyl‐1H‐indole‐4‐carboxylic acid] | 0.63 ± 0.07 °C | 99.3 ± 14.2% | 123% | 
14 | Cn1nc(-c2cccs2)cc1CO [compound 587, (1‐methyl‐3‐thien‐2‐yl‐1H‐pyrazol‐5‐yl)methanol] |  |  |  | Tb Ino1 Tm Shift [˚C] (TbINO1; [3]): 0.36 ± 0.07 °C; HeLa Cells Alamar Blue (HeLa cells): 91.6 ± 8.8 percentage of controls; A549 Cells Alamar Blue (A549 cells): 65.8 percentage of controls
15 | CN(N)c1cc(C(F)(F)F)ccn1 [compound 554, 2‐(1‐methylhydrazino)‐4‐(trifluoromethyl)pyridine] |  |  |  | Tb Ino1 Tm Shift [˚C] (TbINO1; [3]): 0.15 ± 0.08 °C; HeLa Cells Alamar Blue (HeLa cells): 95.6 ± 16.7 percentage of controls; A549 Cells Alamar Blue (A549 cells): 96.1 percentage of controls
16 | OCc1cccnc1N1CCCCC1 [compound 572, (2‐piperidino‐3‐pyridinyl)methanol] | 1.25 ± 0.09 °C | 65.1 ± 5.7% | 80.1% | 
17 | O=C(O)c1cccc(-c2ccccn2)c1 [compound 611, 3‐pyrid‐2‐ylbenzoic acid] | 0.19 ± 0.07 °C | 87 ± 12.6% | 73.9% | 
18 | Cc1ccc(C)c(C(O)C(=O)O)c1 (stereo not drawn) [compound 454, 2‐(2,5‐dimethylphenyl)‐2‐hydroxyacetic acid] |  |  |  | Tb Ino1 Tm Shift [˚C] (TbINO1; [3]): 0.02 ± 0.06 °C; HeLa Cells Alamar Blue (HeLa cells): 96.8 ± 12.7 percentage of controls; A549 Cells Alamar Blue (A549 cells): 60.8 percentage of controls
19 | COc1ccc(OC)c(CN)c1 [compound 329, 2,5‐dimethoxybenzylamine] |  | 26 ± 9% | 156% | ΔTm at 1000 µM (TbINO1; [4]): 0.97 ± 0.05 °C
20 | O=C(O)c1ccc2ncccc2c1 [compound 370, quinoline‐6‐carboxylic acid] | 0.57 ± 0.04 °C | 109 ± 13.1% | 152% | 

Row | SMILES | ΔTm at 1000 µM (TbINO1; [1]) | viability at 500 µM (HeLa cells; [2]) | viability at 500 µM (A549 cells) | further results
21 | CC(=O)c1cc(C)ccc1O [compound 184, 1‐(2‐hydroxy‐5‐methylphenyl)ethan‐1‐one] |  |  |  | Tb Ino1 Tm Shift [˚C] (TbINO1; [3]): 0.14 ± 0 °C; HeLa Cells Alamar Blue (HeLa cells): 91.7 ± 11.6 percentage of controls; A549 Cells Alamar Blue (A549 cells): 53.1 percentage of controls
22 | COC(=O)c1ccoc1C [compound 132, methyl 2-methyl-3-furoate] |  | 71.3 ± 11.3% | 100% | ΔTm at 1000 µM (TbINO1; read-out: TbIno1 Tm shift [°C]): 1.64 ± 0.09 °C; viability at 500 µM (HeLa cells; [5]): 71.3 ± 11.3%
23 | Cc1ccc2c(c1)OCO2 [compound 116, 5‐methyl‐1,3‐benzodioxole] |  | 82.7 ± 15.6% | 109% | ΔTm at 1000 µM (TbINO1; [4]): 0.38 ± 0.06 °C
24 | c1cncc(Cn2cccc2)c1 [compound 248, 3‐(1H‐pyrrol‐1‐ylmethyl)pyridine] | 0 °C | 91.3 ± 11.9% | 86.6% | 
25 | CC1(C)Cc2cccc(C(=O)O)c2O1 [compound 564, 2,2‐dimethyl‐2,3‐dihydro‐1‐benzofuran‐7‐carboxylic acid] |  |  |  | Tb Ino1 Tm Shift [˚C] (TbINO1; [3]): 0.35 ± 0.07 °C; HeLa Cells Alamar Blue (HeLa cells): 91.1 ± 19 percentage of controls; A549 Cells Alamar Blue (A549 cells): 101.2 percentage of controls
26 | Nc1ccc(F)cc1F [compound 88, 2,4‐difluoroaniline] | 1.11 ± 0.07 °C | 87.6 ± 10.6% | 132% | 
27 | OCc1cccc(N2CCCC2)c1 [compound 428, (3‐pyrrolidin‐1‐ylphenyl)methanol] | 0.44 ± 0.07 °C | 12.6 ± 5.6% | 81.2% | 
28 | OCc1ccc2occc2c1 [compound 168, 1‐benzofuran‐5‐ylmethanol] | 0.39 ± 0.08 °C | 120 ± 11.4% | 75.1% | 
29 | CN1C2CCC1CC(=NO)C2.Cl [compound 552, 8‐methyl‐8‐azabicyclo[3.2.1]octan‐3‐one oxime hydrochloride] |  |  |  | Tb Ino1 Tm Shift [˚C] (TbINO1; [3]): 0 ± 0.09 °C; HeLa Cells Alamar Blue (HeLa cells): 103.5 ± 9.7 percentage of controls; A549 Cells Alamar Blue (A549 cells): 105.3 percentage of controls
30 | Cc1cc2c(N)cccc2nn1 [compound 261, 3-methylcinnolin-5-amine] |  | 62.5 ± 14.7% | 74.1% | ΔTm at 1000 µM (TbINO1; read-out: TbIno1 Tm shift [°C]): 1.83 ± 0.11 °C; viability at 500 µM (HeLa cells; [5]): 62.5 ± 14.7%; CC50 (HeLa cells; Homo sapiens, HeLa, read-out: HeLa ED50): 726 ± 64 µM
31 | Nc1cccc(C(=O)c2ccccc2)c1 [compound 601, (3‐aminophenyl)(phenyl)methanone] | 0.21 ± 0.06 °C | 89.2 ± 6.6% | 63.8% | 
32 | O=c1c2ccccc2oc2ncccc12 [compound 600, 5H‐chromeno[2,3‐b]pyridin‐5‐one] | 0.62 ± 0.05 °C | 78.4 ± 11% | 126% | 
33 | Cc1cc(C(=O)O)c(C)o1 [compound 130, 2,5‐dimethyl‐3‐furoic acid] | 0.62 ± 0.08 °C | 84.7 ± 0.7% | 121% | 
34 | O=C(O)Cc1ccccc1O [compound 201, 2‐(2‐hydroxyphenyl)acetic acid] | 0.65 ± 0.08 °C | 94.1 ± 15.7% | 94.2% | 
35 | Cc1oc(-c2ccccc2)cc1CO [compound 521, (2‐methyl‐5‐phenyl‐3‐furyl)methanol] | 1.27 ± 0.07 °C | 41.5 ± 15% | 57.1% | 
36 | COC(=O)c1sccc1N [compound 241, methyl 3‐aminothiophene‐2‐carboxylate] | 0.38 ± 0.09 °C | 94.5 ± 13% | 108% | 
37 | O=C(O)c1cc2sccc2s1 [compound 479, thieno[3,2‐b]thiophene‐2‐carboxylic acid] | 0.21 ± 0.07 °C | 109 ± 11.4% | 102% | 
38 | CN(C)CCOc1ccccc1CO [compound 593, {2‐[2‐(dimethylamino)ethoxy]phenyl}methanol] |  |  |  | Tb Ino1 Tm Shift [˚C] (TbINO1; [3]): 0.13 ± 0.06 °C; HeLa Cells Alamar Blue (HeLa cells): 77.9 ± 13.5 percentage of controls; A549 Cells Alamar Blue (A549 cells): 59.2 percentage of controls
39 | Nc1ccc2occc2c1 [compound 100, 1‐benzofuran‐5‐amine] | 0.78 ± 0.05 °C | 80.2 ± 12.5% | 110% | 
40 | OCC1CNc2ccccc2O1 (stereo not drawn) [compound 307, 3,4‐dihydro‐2H‐1,4‐benzoxazin‐2‐ylmethanol] |  |  |  | Tb Ino1 Tm Shift [˚C] (TbINO1; [3]): 0.56 ± 0.06 °C; HeLa Cells Alamar Blue (HeLa cells): 81 ± 17.2 percentage of controls; A549 Cells Alamar Blue (A549 cells): 70.8 percentage of controls
